Where two headings read alike, the source gives them in different places.

A short description of series [1]: Acute toxicity, single oral administration. The conditions noted are these: mouse, in vivo, read-out: Toxicity LD 50.
In series [2] the test system is lesions of the mucous membrane of the stomach. In words: Ethanol test (mucosa-protective activity). The conditions noted are these: Rattus norvegicus; male rats, oral 30 min before absolute ethanol; dosage reducing number of lesions by 50%; read-out: Ethanol Test ID 50. The series is classed as in vivo. The method, then: The experimental procedure described hereinafter was used to determine the mucosa-protective property:
The oral administration of absolute ethanol to male rats in a dosage of 1 ml per rat leads within 1 hour to bloody lesions of the mucous membrane of the stomach. Various dosages of the substances to be tested (suspended in 0.125% carboxymethycellulose) or of the vehicle alone (control) are administered to the rats orally (1 ml per rat) 30 minutes prior to the treatment with ethanol. One hour after the administration of the ethanol the animals are killed, their stomachs are investigated for the presence of lesions and the number and the total dimension of such lesions are determined. The ID50 is that dosage of a test substance which reduces by 50% the number of lesions in comparison to the control group. […]

The test system of the next series is gastric acid secretion. In words: Gastric acid secretion-inhibiting activity (pylorus ligation, Shay et al.). The conditions noted are these: Rattus norvegicus; male pylorus-ligated rats, intraduodenal, 5 h; 50% decrease of the secretion; read-out: Gastric acid secretion-inhibition, ID 50. The series is classed as in vivo. The method, then: The test procedure described hereinafter was used to determine the gastric acid secretion-inhibiting activity:
The pylorus of male rats is ligated under slight ether narcosis in accordance with Shay et al., Gastroenterology 5. 43 (1945). The substances to be tested, suspended in 0.5% carboxymethylcellulose, are administered intraduodenally. Control animals are treated only with the vehicle. Five hours after the ligation the animals are killed, the volume and acidity of their gastric juice are determined and the values obtained are compared with those of control animals. The ID50 is that dosage of a test substance which brings about a 50% decrease of the secretion in comparison to the control animals. In the following Table there are given for a series of representative compounds of formula I and for two compounds of formula II the results of the testing with respect to their mucosa-protective activity ("ethanol test") and to their gastric acid secretion-inhibiting activity. Moreover, this Table contains data concerning the acute toxicity (LD50 in the case of single oral administration to mice).

The mark [3] stands for this setting: single oral administration to mice.

As for `O=C(O)C#CC(=O)c1ccc2c(c1)OCO2` [A, 3-[3,4-(Methylenedioxy)benzoyl]propiolic acid], the LD50 in series [1] (setting [3]) lay in the range of 625 to 1250 mg/kg. For the same molecule, the values for the ED50 (in series [2]; in the series with gastric acid secretion) were 1.2 mg/kg and 42 mg/kg, respectively.
For the molecule `COC(=O)C#CC(O)c1ccc2c(c1)OCO2` (stereo not shown) [Aa, methyl 4-hydroxy-4-[3,4-(methylenedioxy)phenyl]-2-butynoate], in series [1] (setting [3]), the LD50 was 312 to 625 mg/kg. The ED50 in series [2] amounted to 1.4 mg/kg.
With `COc1cc(C(=O)C#CCO)cc(OC)c1OC` [B, 4-hydroxy-1-(3,4,5-trimethoxyphenyl)-2-butyn-1-one], the LD50 in series [1] (setting [3]) was in the range of 156 to 312 mg/kg. Besides, the ED50 in series [2] amounted to 1.9 mg/kg; in the series with gastric acid secretion it was 18 mg/kg.
Regarding `COCCOCCOC(=O)C#CC(O)c1cc(OC)c(OC)c(OC)c1` (stereo not shown) [Bb, 2-(2-methoxyethoxy)ethyl 4-hydroxy-4-(3,4,5-trimethoxyphenyl)-2-butynoate], the LD50 in series [1] (setting [3]) is 625 to 1250 mg/kg. In series [2], the ED50 was determined as 4 mg/kg.
In the case of `COc1ccc(C(=O)C#CC(=O)O)cc1` [C, 3-(4-methoxybenzoyl)propiolic acid], the LD50 in series [1] (setting [3]) lay within 625 to 1250 mg/kg. The ED50 in series [2] was determined as 1.4 mg/kg.
As to `COC(=O)C#CC(=O)c1ccc(OC)c(OC)c1OC` [D, methyl 3-(2,3,4-trimethoxybenzoyl)propiolate], in series [1] (setting [3]), the LD50 was in the range of 625 to 1250 mg/kg. In addition, the ED50 in series [2] came to 2.1 mg/kg.
The like results for `COC(=O)C#CC(=O)c1ccc(O)cc1` [E, methyl 3-(4-hydroxybenzoyl)propiolate] were, in that order, 312 to 625 mg/kg and 1.2 mg/kg.
The like results for `COCCOCCOC(=O)C#CC(=O)c1cc(OC)c(OC)c(OC)c1` [F, 2-(2-methoxyethoxy)ethyl 3-(3,4,5-trimethoxybenzoyl)propiolate] were, in that order, above 5000 mg/kg and 2.9 mg/kg.
The corresponding values for `COCCOCCOC(=O)C#CC(=O)c1ccc(OC)cc1` [G, 2-(2-methoxyethoxy)ethyl 3-(4-methoxybenzoyl)propiolate] are 1000 to 2000 mg/kg and 2.1 mg/kg.
In the case of `COC(=O)C#CC(=O)c1cc(OC)ccc1OC` [H, methyl 3-(2,5-dimethoxybenzoyl)propiolate], in series [1] (setting [3]), the LD50 is above 5000 mg/kg. Also, the ED50 in series [2] was found to be 2.2 mg/kg.
The corresponding values for `COc1ccc(OC)c(C(=O)C#CC(=O)O)c1` [I, 3-(2,5-dimethoxybenzoyl)propiolic acid] are 625 to 1250 mg/kg and 1.9 mg/kg.
`COCCOCCOC(=O)C#CC(=O)c1ccc2c(c1)OCO2` [J, 2-(2-methoxyethoxy)ethyl 3-[3,4-(methylenedioxy)-benzoyl]propiolate]: the LD50 in series [1] (setting [3]) fell in the range of 1250 to 2500 mg/kg. In addition, the results for the ED50 (in series [2]; in the series on gastric acid secretion) were 2.3 mg/kg and above 100 mg/kg, respectively.
As for `COc1ccc(C(=O)C#CC(=O)O)c(OC)c1OC` [K, 3-(2,3,4-trimethoxybenzoyl)-propiolic acid], the LD50 in series [1] (setting [3]) lay in the range of 500 to 1000 mg/kg. In addition, the ED50 in series [2] is 3.4 mg/kg.
On to `COc1cc(C(=O)C#CC(=O)O)cc(OC)c1OC` [L, 3-(3,4,5-trimethoxybenzoyl)-propiolic acid], for which the LD50 in series [1] (setting [3]) was in the range of 1000 to 2000 mg/kg. The ED50 was determined as 4.1 mg/kg in series [2] and 56 mg/kg in the series with gastric acid secretion.
Regarding `COC(=O)C#CC(=O)c1ccc(F)cc1` [M, methyl 3-(4-fluorobenzoyl)propiolate], the LD50 in series [1] (setting [3]) was in the range of 1250 to 2500 mg/kg. For the same molecule, the ED50 in series [2] came to 4.2 mg/kg.
Consider `COC(=O)C#CC(=O)c1cc(OC)c(OC)c(OC)c1` [N, methyl 3-(3,4,5-trimethoxybenzoyl)propiolate], for which, in series [1] (setting [3]), the LD50 is above 5000 mg/kg. Further, the results for the ED50 (in series [2]; in the series with gastric acid secretion) were 4.2 mg/kg and above 100 mg/kg, respectively.
The corresponding values for `COc1cc(C(=O)C#CC(=O)N(C)C)cc(OC)c1OC` [O, N,N-dimethyl-3-(3,4,5-trimethoxybenzoyl)propiolamide] are 312 to 625 mg/kg, 2.8 mg/kg and 28 mg/kg.
With `O=C(C#CCO)c1ccc(F)cc1` [P, 1-(4-fluorophenyl)-4-hydroxy-2-butyn-1-one], the LD50 in series [1] (setting [3]) lay within 80 to 156 mg/kg. In series [2], the ED50 turned out to be 0.9 mg/kg.
On to `Cc1ccc(C(=O)C#CCO)cc1` [Q, 4-hydroxy-1-(4-methylphenyl)-2-butyn-1-one], for which the LD50 in series [1] (setting [3]) is 80 to 156 mg/kg. The ED50 in series [2] is 1.5 mg/kg.
The like results for `CCOC(C)OCC#CC(=O)c1ccc(F)cc1` (stereo not shown) [R, 4-(1-ethoxyethoxy)-1-(4-fluorophenyl)-2-butyn-1-one] were, in that order, 80 to 156 mg/kg and 1.4 mg/kg.
The corresponding values for `O=C(C#CCO)c1ccc(Cl)cc1` [S, 1-(4-chlorophenyl)-4-hydroxy-2-butyn-1-one] are 80 to 156 mg/kg and 1.2 mg/kg.
The like results for `COc1ccc(C(=O)C#CCO)cc1` [T, 4-hydroxy-1-(4-methoxyphenyl)-2-butyn-1-one] were, in that order, 40 to 80 mg/kg and 1.2 mg/kg.
Turning to `O=C(C#CCO)c1ccc2c(c1)OCO2` [U], the LD50 in series [1] (po) is 80 to 156 mg/kg. In series [2], the ED50 stood at 1.1 mg/kg.
Consider `COc1cc(C(=O)C#CC(C)O)cc(OC)c1OC` (stereo not shown) [V, 4-hydroxy-1-(3,4,5-trimethoxyphenyl)-2-pentyn-1-one], for which the LD50 in series [1] (setting [3]) lay within 156 to 312 mg/kg. The ED50 is 1.2 mg/kg in series [2] and 3.1 mg/kg in the series on gastric acid secretion.
The corresponding values for `CCOC(C)OCC#CC(=O)c1ccc(OC)c(OC)c1OC` (stereo not shown) [W, 4-(1-ethoxyethoxy)-1-(2,3,4-trimethoxyphenyl)-2-butyn-1-one] are 312 to 625 mg/kg, 0.8 mg/kg and 9 mg/kg.
The like results for `COc1ccc(C(=O)C#CCO)c(OC)c1OC` [X, 4-hydroxy-1-(2,3,4-trimethoxyphenyl)-2-butyn-1-one] were, in that order, 156 to 312 mg/kg, 0.8 mg/kg and 4 mg/kg.
The like results for `CSc1ccc(C(=O)C#CCO)cc1` [Y, 4 hydroxy-1-[4-(methylthio)phenyl]-2-butyn-1-one] were, in that order, 156 to 312 mg/kg, 1 mg/kg and 2.7 mg/kg.

The values are drawn from patent publication US4929741A, “Propiolophenone derivatives” (Hoffman-La Roche Inc., priority 1987, dated 1990).
